Square brackets hold non-standard residues; d marks the D form. Peptide text beside a SMILES is read from it. * marks the point of attachment. Dolaproine = CO[C@@H]([C@@H]1CCCN1)[C@@H](C)C(=O)O; Dil = CC[C@H](C)[C@H](NC)[C@@H](CC(=O)O)OC; X1 = C[C@@H](N*)[C@@H](O)c1ccccc1; NMeV = CN[C@H](C(=O)O)C(C)C

For series [1], the system named is MES-SA/Dx5. The series can be described thus: Cytotoxicity against human MES-SA/Dx5 cells assessed as inhibition in cell growth. It is filed as functional, cell-based.
Series [2] is described as follows: Cytotoxicity against HEK293T cells assessed as inhibition in cell growth. Format: toxicity, cell-based, HEK-293T. The following applies: human.
Series [3] has as its system MES-SA. The series can be described thus: Cytotoxicity against human MES-SA cells assessed as inhibition in cell growth. Format: functional, cell-based.

Regarding `CC(/C=C/[C@H]1O[C@H](CC(=O)OC(C)(C)C)C[C@@](O)(CCl)[C@@H]1O)=C\C[C@@H]1O[C@H](C)[C@H](NC(=O)/C=C\[C@H](C)OC(=O)C(C)C)C[C@@H]1C`, the half-inhibitory concentration (IC50) in series [1] came out at 10.3 nM; in series [2] it was 0.13 nM; in series [3] it was 264 nM.
With `CO[C@@H]1C[C@@]2(CO2)[C@H](O)[C@@H](/C=C/C(C)=C/C[C@@H]2O[C@H](C)[C@H](NC(=O)/C=C\[C@H](C)OC(=O)N3CCCCC3)C[C@@H]2C)O1`, the IC50 in series [1] is 3.35 nM; in series [2], 0.11 nM; in series [3], 3.71 nM.
For `CC(=O)O[C@@H](C)/C=C\C(=O)N[C@@H]1C[C@H](C)[C@H](C/C=C(C)/C=C/[C@H]2O[C@H](CCC#N)C[C@@]3(CO3)[C@@H]2O)O[C@@H]1C`, the figures for the concentration for half-maximal inhibition (IC50) in series [1], in series [2] and in series [3] were 2.6 nM, 0.099 nM and 0.82 nM, respectively.
As to `CC(=O)O[C@H]1C(=O)[C@@]2(C)[C@H]([C@H](OC(=O)c3ccccc3)[C@]3(O)C[C@H](OC(=O)[C@H](O)[C@@H](NC(=O)c4ccccc4)c4ccccc4)C(C)=C1C3(C)C)[C@]1(OC(C)=O)CO[C@@H]1C[C@@H]2O` [PACLITAXEL], the IC50 in series [1] is greater than 400 nM; in series [2], 1.76 nM; in series [3] it was 2.47 nM.
As to `CC(=O)O[C@@H](C)/C=C\C(=O)N[C@@H]1C[C@H](C)[C@H](C/C=C(C)/C=C/[C@H]2O[C@H](CC(=O)OC(C)(C)C)C[C@@](O)(CCl)[C@@H]2O)O[C@@H]1C`, the IC50 in series [1] amounted to 5.16 nM; in series [2], 0.033 nM; in series [3], 14.9 nM.
For the molecule `CC(/C=C/[C@H]1O[C@H](C)C[C@@]2(CO2)[C@@H]1O)=C\C[C@@H]1O[C@H](C)[C@H](NC(=O)/C=C\[C@H](C)NC(=O)N2CCOCC2)C[C@@H]1C`, the values for the half-inhibitory concentration (IC50) in series [1], in series [2] and in series [3] were 100 nM, 0.3 nM and 2.87 nM, respectively.
For `CC(/C=C/[C@H]1O[C@H](C)C[C@@]2(CO2)[C@@H]1O)=C\C[C@@H]1O[C@H](C)[C@H](NC(=O)/C=C\[C@H](C)NC(=O)N2CCCCC2)C[C@@H]1C`, the IC50 in series [1] was 64 nM; in series [2], 0.041 nM; in series [3], 3.19 nM.
In the case of `CC(/C=C/[C@H]1O[C@H](CC(=O)OC(C)(C)C)C[C@@]2(CO2)[C@@H]1O)=C\C[C@@H]1O[C@H](C)[C@H](NC(=O)/C=C\[C@H](C)OC(=O)C(C)C)C[C@@H]1C`, the concentration for half-maximal inhibition (IC50) amounted to 4.83 nM in series [1], 0.099 nM in series [2] and 11.3 nM in series [3].
Taken in the same sequence, the figures for `CC(=O)O[C@@H](C)/C=C\C(=O)N[C@@H]1C[C@H](C)[C@H](C/C=C(C)/C=C/[C@H]2O[C@H](CC(=O)O)C[C@@]3(CO3)[C@@H]2O)O[C@@H]1C` [THAILANSTATIN A] were greater than 400 nM, 296 nM and 419 nM.
As for `CO[C@@H]1C[C@@]2(CO2)[C@H](O)[C@@H](/C=C/C(C)=C/C[C@@H]2O[C@H](C)[C@H](NC(=O)/C=C\[C@H](C)OC(=O)N3CCOCC3)C[C@@H]2C)O1`, the IC50 in series [1] was 13.8 nM; in series [2], 0.006 nM; in series [3], 0.49 nM.
On to `C=C1C[C@@H](CC(=O)O)O[C@H](/C=C/C(C)=C/C[C@@H]2O[C@H](C)[C@H](NC(=O)/C=C\[C@H](C)OC(C)=O)C[C@@H]2C)[C@H]1O`, for which the half-inhibitory concentration (IC50) in series [1], in series [2] and in series [3] was greater than 1000 nM in each case.
Turning to `CO[C@@H]1C[C@@]2(CN2)[C@H](O)[C@@H](/C=C/C(C)=C/C[C@@H]2O[C@H](C)[C@H](NC(=O)/C=C\[C@H](C)OC(C)=O)C[C@@H]2C)O1`, the figures for the IC50 in series [1], in series [2] and in series [3] were 210 nM, 0.144 nM and 0.6 nM, respectively.
The corresponding values for `CCOC(=O)/C=C/C[C@@H]1C[C@@]2(CO2)[C@H](O)[C@@H](/C=C/C(C)=C/C[C@@H]2O[C@H](C)[C@H](NC(=O)/C=C\[C@H](C)OC(=O)C(C)C)C[C@@H]2C)O1` are 2.73 nM, 0.09 nM and 2.96 nM.
Consider `CO[C@@H]1C[C@@]2(CO2)[C@H](O)[C@@H](/C=C/C(C)=C/C[C@@H]2O[C@H](C)[C@H](NC(=O)/C=C\[C@H](C)OC(=O)N(C)C)C[C@@H]2C)O1`, for which the IC50 in series [1] was found to be 2.01 nM; in series [2], 0.09 nM; in series [3], 1.08 nM.
On to `CC(/C=C/[C@H]1O[C@H](C)C[C@@]2(CO2)[C@@H]1O)=C\C[C@@H]1O[C@H](C)[C@H](NC(=O)/C=C\[C@H](C)OC(=O)N2CCOCC2)C[C@@H]1C`, for which the IC50 in series [1] is 1.48 nM; in series [2] it was 0.08 nM; in series [3] it was 0.38 nM.
Turning to `CC(/C=C/[C@H]1O[C@H](C)C[C@@]2(CO2)[C@@H]1O)=C\C[C@@H]1O[C@H](C)[C@H](NC(=O)/C=C\[C@H](C)NC(=O)C(C)C)C[C@@H]1C`, the IC50 in series [1] turned out to be 4.91 nM; in series [2] it was 0.015 nM; in series [3], 0.23 nM.
Turning to `CC(=O)O[C@@H](C)/C=C\C(=O)N[C@@H]1C[C@H](C)[C@H](C/C=C(C)/C=C/[C@H]2O[C@H](CC(=O)OC(C)(C)C)C[C@@]3(CO3)[C@@H]2O)O[C@@H]1C`, the IC50 in series [1] was found to be 0.48 nM; in series [2], 0.005 nM; in series [3], 1.37 nM.
`CNC(=O)O[C@@H]1[C@@H](/C=C/C(C)=C/C[C@@H]2O[C@H](C)[C@H](NC(=O)/C=C\[C@H](C)OC(C)=O)C[C@@H]2C)O[C@H](OC)C[C@@]12CO2`: the IC50 in series [1] was 76.1 nM; in series [2], 10.1 nM; in series [3], 76.7 nM.
Regarding `CO[C@@H]1C[C@@]2(CO2)[C@H](O)[C@@H](/C=C/C(C)=C/C[C@@H]2O[C@H](C)[C@H](NC(=O)/C=C\[C@H](C)NC(=O)C(C)C)C[C@@H]2C)O1`, the half-maximal inhibitory concentration (IC50) in series [1] turned out to be 384 nM; in series [2], 0.058 nM; in series [3] it was 6.16 nM.
For the molecule `CC(=O)O[C@@H](C)/C=C\C(=O)N[C@@H]1C[C@H](C)[C@H](C/C=C(C)/C=C/[C@H]2O[C@H](CC(=O)O)C[C@@](O)(CCl)[C@@H]2O)O[C@@H]1C` [THAILANSTATIN B], the IC50 in series [1] was greater than 1000 nM; in series [2] it was 194 nM; in series [3] it was 856 nM.
The corresponding values for `CO[C@@H]1C[C@@]2(CO2)[C@H](O)[C@@H](/C=C/C(C)=C/C[C@@H]2O[C@H](C)[C@H](NC(=O)/C=C\[C@H](C)OC(=O)N(C)CCO)C[C@@H]2C)O1` are 11 nM, 0.009 nM and 0.63 nM.
On to `CO[C@@H]1C[C@@]2(CO2)[C@H](OC(C)=O)[C@@H](/C=C/C(C)=C/C[C@@H]2O[C@H](C)[C@H](NC(=O)/C=C\[C@H](C)OC(C)=O)C[C@@H]2C)O1`, for which the IC50 in series [1] came to 1.98 nM; in series [2], 0.031 nM; in series [3] it was 1.76 nM.
Consider `CC(=O)O[C@@H](C)/C=C\C(=O)N[C@@H]1C[C@H](C)[C@H](C/C=C(C)/C=C/[C@H]2O[C@H](CCN=[N+]=[N-])C[C@@]3(CO3)[C@@H]2O)O[C@@H]1C`, for which the IC50 worked out at 0.72 nM in series [1], 0.028 nM in series [2] and 1.08 nM in series [3].
Taken in the same sequence, the figures for `CC(=O)O[C@@H](C)/C=C\C(=O)N[C@@H]1C[C@H](C)[C@H](C/C=C(C)/C=C/[C@H]2O[C@H](CC(C)(C)O)C[C@@]3(CO3)[C@@H]2O)O[C@@H]1C` were 2.96 nM, 0.08 nM and 0.64 nM.
Consider `CC(/C=C/[C@H]1O[C@H](CC(=O)NCCC(=O)O)C[C@@]2(CO2)[C@@H]1O)=C\C[C@@H]1O[C@H](C)[C@H](NC(=O)/C=C\[C@H](C)OC(=O)C(C)C)C[C@@H]1C`, for which the figures for the IC50 in series [1], in series [2] and in series [3] were 74 nM, 1.44 nM and 4.58 nM, respectively.
As for `CC(=O)O[C@@H](C)/C=C\C(=O)N[C@@H]1C[C@H](C)[C@H](C/C=C(C)/C=C/[C@H]2O[C@H](CCO)C[C@@]3(CO3)[C@@H]2O)O[C@@H]1C`, the IC50 was found to be 3.21 nM in series [1], 0.007 nM in series [2] and 0.072 nM in series [3].
As for `CC[C@H](C)[C@@H]([C@@H](CC(=O)N1CCC[C@H]1[C@H](OC)[C@@H](C)C(=O)N[C@H](C)[C@@H](O)c1ccccc1)OC)N(C)C(=O)[C@@H](NC(=O)[C@@H](NC)C(C)C)C(C)C` (H-[NMeV]V[Dil][Dolaproine]-X1), the IC50 turned out to be 88.2 nM in series [1], 0.068 nM in series [2] and 0.096 nM in series [3].
Turning to `CC(/C=C/[C@H]1O[C@H](CC(=O)O)C[C@@](O)(CCl)[C@@H]1O)=C\C[C@@H]1O[C@H](C)[C@H](NC(=O)/C=C\[C@H](C)OC(=O)C(C)C)C[C@@H]1C` [THAILANSTATIN C], the IC50 in series [1] came to 298 nM; in series [2], 64.7 nM; in series [3], 137 nM.
For `CC(=O)O[C@@H](C)/C=C\C(=O)N[C@@H]1C[C@H](C)[C@H](C/C=C(C)/C=C/[C@H]2O[C@H](CCNC(=O)OC(C)(C)C)C[C@@]3(CO3)[C@@H]2O)O[C@@H]1C`, the IC50 in series [1] came to 1.8 nM; in series [2], 0.004 nM; in series [3], 0.13 nM.
With `CC(/C=C/[C@H]1O[C@H](C)C[C@@]2(CO2)[C@@H]1O)=C\C[C@@H]1O[C@H](C)[C@H](NC(=O)/C=C\[C@H](C)OC(=O)N2CCCCC2)C[C@@H]1C`, the IC50 amounted to 0.57 nM in series [1], 0.07 nM in series [2] and 0.5 nM in series [3].
The corresponding values for `CC(/C=C/[C@H]1O[C@H](C)C[C@@]2(CO2)[C@@H]1O)=C\C[C@@H]1O[C@H](C)[C@H](NC(=O)/C=C\[C@H](C)NC(=O)N(C)C)C[C@@H]1C` are greater than 16 nM, 0.28 nM and 1.97 nM.
The corresponding values for `CC(=O)O[C@@H](C)/C=C\C(=O)N[C@@H]1C[C@H](C)[C@H](C/C=C(C)/C=C/[C@H]2O[C@H](C)C[C@@]3(CO3)[C@@H]2O)O[C@@H]1C` are 0.56 nM, 0.1 nM and 0.55 nM.
Consider `CC(/C=C/[C@H]1O[C@H](CC(=O)OC2CC2)C[C@@]2(CO2)[C@@H]1O)=C\C[C@@H]1O[C@H](C)[C@H](NC(=O)/C=C\[C@H](C)OC(=O)C(C)C)C[C@@H]1C`, for which the IC50 in series [1] turned out to be 16.1 nM; in series [2], 0.218 nM; in series [3], 2.15 nM.
On to `CC(/C=C/[C@H]1O[C@H](C)C[C@@]2(CO2)[C@@H]1O)=C\C[C@@H]1O[C@H](C)[C@H](NC(=O)/C=C\[C@H](C)OC(=O)N2CCN(C(=O)OC(C)(C)C)CC2)C[C@@H]1C`, for which the IC50 in series [1] stood at 7.01 nM; in series [2], 0.018 nM; in series [3] it was 2.87 nM.

These data come from ChEMBL document CHEMBL5149986, “Spliceostatins and Derivatives: Chemical Syntheses and Biological Properties of Potent Splicing Inhibitors” (J Nat Prod, 2021).
